Measured values: US6927221B2, “Tricyclic fused heterocyclic compound, process for preparing it and medicament comprising it” (Eisai Co., Ltd., priority 1999, dated 2005)
pIC50: −log10 of the molar value. Structures can show the parent of a compound that is named as a salt. Where two headings read alike, the source gives them in different places.

Experiments:
[1] = target: T1, human CRFR1 (Homo sapiens, UniProt P34998); assay: CRFR binding experiment (125I-sauvagine, SPA); conditions: membrane fraction of cell expressing human CRFR1, 40 pM 125I-sauvagine, room temperature, two hours; read-out: CRF1 receptor binding ability IC50
T1 construct: The full length gene of CRFR^1 was obtained by a PCT method using human brain (QuickClone™ Clontech) as cDNA library; expressed in transfected cells; host or cells: Hek 283 cell (so in the source)
T1 sequence (P34998 24-415): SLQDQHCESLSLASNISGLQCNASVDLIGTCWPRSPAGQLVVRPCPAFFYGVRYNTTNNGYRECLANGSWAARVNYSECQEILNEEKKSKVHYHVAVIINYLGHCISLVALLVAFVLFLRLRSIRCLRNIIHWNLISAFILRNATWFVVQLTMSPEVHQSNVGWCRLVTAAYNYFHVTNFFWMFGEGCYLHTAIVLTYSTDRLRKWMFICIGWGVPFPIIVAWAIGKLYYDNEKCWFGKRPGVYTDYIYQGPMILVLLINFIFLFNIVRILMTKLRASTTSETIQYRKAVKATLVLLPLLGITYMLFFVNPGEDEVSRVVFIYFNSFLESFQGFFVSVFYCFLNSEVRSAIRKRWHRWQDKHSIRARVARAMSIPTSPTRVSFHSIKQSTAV
Experimental: • (1) Preparation of CRFR expressing cell: As an experiment material for the CRFR binding experiment, a membrane fraction of a cell which expressed highly human CRFR1. CRFR expressing cell was prepared as follows. The full length gene of CRFR^1 was obtained by a PCT method using human brain (QuickClone™ Clontech) as cDNA library. The resulting DNA fragment was inserted into a cloning vector to confirm the base sequence. A cDNA having the correct base sequence was ligated to an expression vector (pcDNA3.1™, Invitrogen). A gene was inserted into […] cell and grown in a cell culturing solution containing G418 (1 mg/ml) to obtain a resistance cell, into which a CRFR^1 expression vector was cloned by a limitation diluting method. A clone having the high binding ability of membrane and sauvagine per unit protein was finally selected from cloned cells by a binding experiment shown by the method shown below, which was used for an experiment. • (2) Preparation of a membrane fraction: G418 resistant cells into which a gene for CRFR^1 was introduced were collected, and cell rupture was performed by an ultrasound generator with a sonicate buffer (D-PBS-10 mM MgCl2, 2 mM EGTA). A suspension after ultrasound rupture was centrifuged (46,000×g, 10 minutes), the sediment thereof was further resuspended with a sonicate buffer, and the same procedures were related. Finally, the sediment was suspended in a binding buffer (D-PBS-10 mM MgCl2, 2 mM EGTA, 1.5% BSA, 0.15 mM bacitracin, 1× protease inhibitor cocktail (COMPLETE™, Boehringer), to adjust the protein concentration at 1.6 mg/ml, which was used as a membrane fraction. • (3) Binding experiment: Binding experiment with sauvagine was performed using a 96-well plate and SP™ (Amersham pharmacia) An experiment was according to the specification of SPA beads. […] of a membrane fraction protein, 0.5 mg of beads and 40 pM ^125I-sauvaging (Amersham pharmacia) were allowed to stand at room temperature for two hours in the presence a test compound, centrifuged (1,000×g, 5 minutes), and then the radioactivity of each well was measured with TopCount™ (Packard). • (4) Calculation of the binding ability: The radioactivity as the non-specific binding when 1,000-fold excessive amount of non-radioactive sauvagine was added was substacted from each value, the radioactivity where no test material is added is regarded as 100% (control), and each value is shown by % (% of control). The concentration showing 50% in % (% of control) was obtained from a graph where the concentration test material is plotted on an abscissa axis and % (% of control) is plotted on a coordinate axis and IC50 value was calculated (Table 1)

[2] = system: AtT-20 cell; assay: Experiment for measuring adenylate cyclase activity using AtT-20 cell (CRF-induced cAMP); type: cell-based, mouse; conditions: 1 mM IBMX, intracellular cAMP by ELISA, read-out: adenylate cyclase ability IC50
Description: Experiment for Measuring Adenyrate Cyclase the Activity Using AtT-20 Cell
• (1) Test procedures: AtT-20 cell is a cell strain derived from mouse pytuitari gland tumor, it is known that the intracellular adenyrate cyclase system is activated in response to corticotrophin release hormone (CRF), to produce cyclic AMP (cAMP), releasing adrenocortical hormone (ACTH) (Biochem. Piophys. Res. Com. 106. 1364-1371, 1982). In this experiment, the cell 1×10^5) suspended in D-MEM medium (0.1% FPS), seeded on a 96-well plate, a phosphodiesterase inhibitor (IBMX, Calbiochem) was added to the final concentration of 1 mM, which was cultured at 37° C. for 30 minutes. A diluted test compound solution and CRF (30 nM) were added, which was further cultured at 37° C. for 10 minutes, cells were collected by centrifugation (500×g, 5 minutes), cells were lysed with a lysis buffer (Amersham Pharmacia), and an amount of intracellular cAMP produced was quantitated using the ELISA method. For ELISA, cAMP EIA system (BIOTRAK™ Amersham Pharmacia) was used. • (2) Calculation of adenyrate cyclase activity inhibitory ability: Treatment of the resulting data was carried out as follows. An amount of cAMP produced by a cell to which 30 nM CRF was added is regarded as 100% (control) and a value of each sample is expressed as % (% of control). The concentration showing 50% in % (% of control) was obtained from a graph where the concentration of a test material is plotted on an abscissa axis and % (% of control) is plotted on a coordinate and IC50 value was calculated (Table 2).

| SMILES | pIC50 [1] | pIC50 ([2]; Mus musculus, AtT20, 30 nM CRF) | pIC50 ([2]; 30 nM CRF) |
| --- | --- | --- | --- |
| CCCC(CCC)N1CCc2c(C)nc3c(-c4cnc(N(C)C)cc4C)c(C)nn3c21 [Example 3, N-5-[2,5-Dimethyl-8-(1-propylbutyl)-7,8-dihydro-6H-pyrazolo[1,5-a]pyrrolo[3,2-e]pyrimidin-3-yl]-4-methyl-2-pyridyl-N,N-dimethylamine hydrochloride] | 6.22 | – | – |
| CCC(CC)N1c2c(c(C)nc3c(-c4c(C)cc(C)cc4C)c(C)nn23)CC1C (stereo not shown) [Example 13, 8-(1-Ethylpropyl)-mesityl-2,5,7-trimethyl-7,8-dihydro-6H-pyrazolo[1,5-a]pyrrolo[3,2-e]pyrimidine] | 5.60 | – | 5.82 |
| CCC(CC)N1CCc2c(C)nc3c(-c4ccc(Cl)cc4Cl)c(C)nn3c21 [Example 33, 3-(2,4-Dichlorophenyl)-8-(1 ethylpropyl)-2,5-dimethyl-7,8-dihydro-6H-pyrazolo[1,5-a]pyrrolo[3,2-e]pyrimidine hydrochloride] | 6.00 | – | – |
| CCC(CC)n1ccc2c(C)nc3c(-c4c(C)cc(C)cc4C)c(C)nn3c21 [Example 67, 8-(1-Ethylpropyl)-3-mesityl-2,5-dimethyl-8H-pyrazolo[1,5-a]pyrrolo[3,2-e]pyrimidine] | 6.70 | 5.70 | – |
| CCCC(=O)N1CCc2c(C)nc3c(-c4c(C)cc(C)cc4C)c(C)nn3c21 [Example 74, 1-(3-Mesityl-2,5-dimethyl-7,8-dihydro-6H-pyrazolo[1,5-a]pyrrolo[3,2-e]pyrimidin-8-yl)-1-butanone] | 5.85 | – | – |

Further molecules by rising pIC50 [1], results first:

| pIC50 [1] | pIC50 ([2]; Mus musculus, AtT20, 30 nM CRF) | SMILES | pIC50 ([2]; 30 nM CRF) |
| --- | --- | --- | --- |
| 5.52 | – | Cc1cc(C)c(-c2c(C)nn3c4c(c(C)nc23)CCN4CC2CC2)c(C)c1 [Example 38, 8-(Cyclopropylmethyl)-3-mesityl-2,5-dimethyl-7,8-dihydro-6H-pyrazolo[1,5-a]pyrrolo[3,2-e]pyrimidine hydrochloride] | – |
| 5.82 | – | CCC(CC)N1CCCc2c(C)nc3c(-c4c(C)cc(C)cc4C)c(C)nn3c21 [Example 12, 9-(1-Ethylpropyl)-3-mesityl-2,5-dimethyl-6,7,8,9-tetrahydropyrazolo[1,5-a]pyrido[3,2-e]pyrimidine] | – |
| 5.82 | – | CCc1nn2c3c(c(C)nc2c1-c1c(C)cc(C)cc1C)CCN3C(CC)CC [Example 23, 2-Ethyl-8-(1-ethylpropyl)-3-mesityl-5-methyl-7,8-dihydro-6H-pyrazolo[1,5-a]pyrrolo[3,2-e]pyrimidine] | – |
| 5.82 | – | Cc1cc(C)c(-c2c(C)nn3c4c(c(C)nc23)CCN4C2CCCCCC2)c(C)c1 [Example 45, 8-Cycloheptyl-3-mesityl-2,5-dimethyl-7,8-dihydro)-6H-pyrazolo[1,5-a]pyrrolo[3,2-e]pyrimidine hydrochloride] | – |
| 6.00 | – | CCCC(CCC)N1CCc2c(C)nc3c(-c4c(C)cc(C)cc4C)c(C)nn3c21 [Example 6, 3-Mesityl-2,5-dimethyl-8-(1-propylbutyl)-7,8-dihydro-6H-pyrazolo[1,5-a]pyrrolo[3,2]-pyrimidine hydrochloride] | – |
| 6.30 | – | CCCCN1CCc2c(C)nc3c(-c4c(C)cc(C)cc4C)c(C)nn3c21 [Example 2, 8-Butyl-3-mesityl-2,5-dimethyl-7,8-dihydro-pyrazolo[1,5-a]pyrrolo[3,2-e]pyrimidine hydrochloride] | – |
| 6.40 | – | COCCN1c2c(c(C)nc3c(-c4c(C)cc(C)cc4C)c(C)nn23)CC1C (stereo not shown) [Example 44, 3-Mesityl-8-(2-methoxyethyl)-2,5,7-trimethyl-7,5-dihydro-6H-pyrazolo[1,5-a]pyrrolo[3,2-e]pyrimidine hydrochloride] | – |
| 7.00 | 6.05 | CCC(CC)N1CCc2c(C)nc3c(-c4c(C)cc(C)cc4C)c(C)nn3c21 [Example 1, 8-(1-Ethylpropyl)-3-mesityl-2,5-dimethyl-7,8-dihydro-6H-pyrazolo[1,5-a]pyrrolo[3,2-e]pyrimidine hydrochloride] | – |
